# According to patent publication US6525001B1, “Substituted pyrimidine and pyridine herbicides” (Mid-American Commercialization Corporation, priority 1997, dated 2003):
# Experiments:
# Assay in all cases: Test D
# Assay type in all cases: in vivo
# [1] = system: Italian ryegrass (Lolium multiflorum); conditions: POSTEMERGENCE
# Description: (§1) Compounds evaluated in this test were formulated in a non-phytotoxic solvent mixture which included a surfactant and applied to plants that were in the 1- to 4-leaf stage (postemergence application). A mixture of sandy loam soil and greenhouse potting mix in a 60:40 ratio was used for the postemergence test.
# (§2) Plantings of these crops and weed species were adjusted to produce plants of appropriate size for the postemergence test. All plant species were grown using normal greenhouse practices. Crop and weed species include alfalfa (Medicago sativa), annual bluegrass (Poa annua), blackgrass (Alopecurus myosuroides), black nightshade (Solanum nigra), chickweed (Stellaria media), common poppy (Papaver rhoeas), deadnettle (Lamium amplexicaule), downy brome (Bromus tectorum), field violet (Viola arvensis), galium 2 (Galium aparine), green foxtail (Setaria viridis), Italian ryegrass (Lolium multiflorum), jointed goatgrass (Aegilops cylindrica), kochia (Kochia scoparia), lambsquarters (Chenopodium album), lentil (Lens culinaris), littleseed canarygrass (Phalaris minor), pea (Pisum sativum), potato (Solanum tuberosum), rape (Brassica napus), redroot pigweed (Amaranthus retroflexus), Russian thistle (Salsola kali), scentless chamomile (Matricaria inodora), sorghum (Sorghum vulgare), spring barley (Hordeum vulgare), sugar beet (Beta vulgaris), sunflower (Helianthus annuus), ivyleaf speedwell (Veronica hederaefolia), spring wheat (Triticum aestivum), winter wheat (Triticum aestivum), wild buckwheat (Polygonum convolvulus), wild mustard (Sinapis arvensis), wild oat (Avena fatua), windgrass (Apera spica-venti) and winter barley (Hordeum vulgare).
# (§3) Treated plants and untreated controls were maintained in a greenhouse for approximately 21 to 28 days, after which all treated plants were compared to untreated controls and visually evaluated. Plant response ratings, summarized in Table D, are based upon a 0 to 100 scale where 0 is no effect and 100 is complete control. A dash response (−) means no test result.
# [2] = system: annual bluegrass (Poa annua); conditions: POSTEMERGENCE
# Description: as §1, §2, §3
# [3] = system: blackgrass (Alopecurus myosuroides); conditions: POSTEMERGENCE
# Description: as §1, §2, §3
# [4] = system: downy brome (Bromus tectorum); conditions: POSTEMERGENCE
# Description: as §1, §2, §3
# [5] = system: green foxtail (Setaria viridis); conditions: POSTEMERGENCE
# Description: as §1, §2, §3
# [6] = system: jointed goatgrass (Aegilops cylindrica); conditions: POSTEMERGENCE
# Description: as §1, §2, §3
# [7] = system: littleseed canarygrass (Phalaris minor); conditions: POSTEMERGENCE
# Description: as §1, §2, §3
# [8] = system: scentless chamomile (Matricaria inodora); conditions: POSTEMERGENCE
# Description: as §1, §2, §3
# [9] = system: spring barley (Hordeum vulgare); conditions: POSTEMERGENCE
# Description: as §1, §2, §3
# [10] = system: spring wheat (Triticum aestivum); conditions: POSTEMERGENCE
# Description: as §1, §2, §3
# [11] = system: sunflower (Helianthus annuus); conditions: POSTEMERGENCE
# Description: as §1, §2, §3
# [12] = system: wild oat (Avena fatua); conditions: POSTEMERGENCE
# Description: as §1, §2, §3
# [13] = system: windgrass (Apera spica-venti); conditions: POSTEMERGENCE, Rate 62 g/ha
# Description: as §1, §2, §3
# [14] = system: winter barley (Hordeum vulgare); conditions: POSTEMERGENCE
# Description: as §1, §2, §3
# [15] = system: winter wheat (Triticum aestivum); conditions: POSTEMERGENCE
# Description: as §1, §2, §3
# [16] = system: common poppy (Papaver rhoeas); set-up: key: 0 is no effect; 100 is complete control; conditions: PREEMERGENCE
# [17] = system: deadnettle (Lamium amplexicaule); set-up: key: 0 is no effect; conditions: PREEMERGENCE
# [18] = system: lambsquarters (Chenopodium album); conditions: PREEMERGENCE
# [19] = system: sunflower (Helianthus annuus); conditions: PREEMERGENCE
# [20] = system: spring wheat (Triticum aestivum); set-up: key to Plant response rating, Spring Wheat: 0 is no effect; conditions: PREEMERGENCE
# [21] = system: wild oat (Avena fatua); set-up: key: 0 is no effect; 100 is complete control; conditions: PREEMERGENCE
# [22] = system: windgrass (Apera spica-venti); set-up: key: 0 is no effect; 100 is complete control; conditions: PREEMERGENCE
# [23] = system: field violet (Viola arvensis); set-up: key: 0 is no effect; 100 is complete control; conditions: PREEMERGENCE
smiles,measurement,setting,value
CCc1cnc(-c2ccc(C(F)(F)F)cc2)nc1Cc1cccc(C(F)(F)F)c1 [Compound 22],"Plant response rating, I. Ryegrass",[1]; Rate 62 g/ha,10
same,"Plant response rating, I. Ryegrass",[1]; Rate 125 g/ha,10
same,"Plant response rating, Annual bluegras",[2]; Rate 62 g/ha,30
same,"Plant response rating, Annual bluegras",[2]; Rate 125 g/ha,70
same,"Plant response rating, Blackgrass",[3]; Rate 62 g/ha,10
same,"Plant response rating, Blackgrass",[3]; Rate 125 g/ha,20
same,"Plant response rating, Downy brome",[4]; Rate 62 g/ha,10
same,"Plant response rating, Downy brome",[4]; Rate 125 g/ha,20
same,"Plant response rating, Green foxtail",[5]; Rate 62 g/ha,10
same,"Plant response rating, Green foxtail",[5]; Rate 125 g/ha,35
same,"Plant response rating, Jointed goatgra",[6]; Rate 62 g/ha,10
same,"Plant response rating, Jointed goatgra",[6]; Rate 125 g/ha,15
same,"Plant response rating, LS canarygrass",[7]; Rate 62 g/ha,20
same,"Plant response rating, LS canarygrass",[7]; Rate 125 g/ha,60
same,"Plant response rating, Scentless chamo",[8]; Rate 62 g/ha,50
same,"Plant response rating, Scentless chamo",[8]; Rate 125 g/ha,80
same,"Plant response rating, Spring Barley",[9]; Rate 62 g/ha,10
same,"Plant response rating, Spring Barley",[9]; Rate 125 g/ha,20
same,"Plant response rating, Spring Wheat",[10]; Rate 62 g/ha,10
same,"Plant response rating, Spring Wheat",[10]; Rate 125 g/ha,20
same,"Plant response rating, Sunflower",[11]; Rate 62 g/ha,10
same,"Plant response rating, Sunflower",[11]; Rate 125 g/ha,20
same,"Plant response rating, Wild oat",[12]; Rate 62 g/ha,20
same,"Plant response rating, Wild oat",[12]; Rate 125 g/ha,65
same,"Plant response rating, Windgrass",[13],30
same,"Plant response rating, Barley (winter)",[14]; Rate 62 g/ha,10
same,"Plant response rating, Barley (winter)",[14]; Rate 125 g/ha,10
same,"Plant response rating, Wheat (winter)",[15]; Rate 62 g/ha,10
same,"Plant response rating, Wheat (winter)",[15]; Rate 125 g/ha,10
same,"Plant response rating, Common poppy",[16]; Rate 62 g/ha,60
same,"Plant response rating, Common poppy",[16]; Rate 125 g/ha,70
same,"Plant response rating, Common poppy",[16]; Rate 250 g/ha,70
same,"Plant response rating, Deadnettle",[17]; Rate 62 g/ha,0
same,"Plant response rating, Deadnettle",[17]; Rate 125 g/ha,70
same,"Plant response rating, Deadnettle",[17]; Rate 250 g/ha,10
same,"Plant response rating, Lambsquarters",[18]; Rate 62 g/ha,60
same,"Plant response rating, Lambsquarters",[18]; Rate 125 g/ha,70
same,"Plant response rating, Lambsquarters",[18]; Rate 250 g/ha,70
same,"Plant response rating, Sunflower",[19]; Rate 62 g/ha,20
same,"Plant response rating, Sunflower",[19]; Rate 125 g/ha,10
same,"Plant response rating, Sunflower",[19]; Rate 250 g/ha,30
same,"Plant response rating, Spring Wheat",[20]; Rate 62 g/ha,0
same,"Plant response rating, Spring Wheat",[20]; Rate 125 g/ha,10
same,"Plant response rating, Spring Wheat",[20]; Rate 250 g/ha,5
same,"Plant response rating, Wild oat",[21]; Rate 62 g/ha,0
same,"Plant response rating, Wild oat",[21]; Rate 125 g/ha,30
same,"Plant response rating, Wild oat",[21]; Rate 250 g/ha,30
same,"Plant response rating, Windgrass",[22]; Rate 62 g/ha,20
same,"Plant response rating, Windgrass",[22]; Rate 125 g/ha,70
same,"Plant response rating, Windgrass",[22]; Rate 250 g/ha,30
CCc1cnc(-n2ccc(C(F)(F)F)n2)nc1Cc1cccc(C(F)(F)F)c1 [Compound 46],"Plant response rating, Common poppy",[16]; Rate 31 g/ha,100
same,"Plant response rating, Common poppy",[16]; Rate 62 g/ha,100
same,"Plant response rating, Deadnettle",[17]; Rate 31 g/ha,90
same,"Plant response rating, Deadnettle",[17]; Rate 62 g/ha,90
same,"Plant response rating, Field violet",[23]; Rate 31 g/ha,85
same,"Plant response rating, Field violet",[23]; Rate 62 g/ha,100
same,"Plant response rating, Lambsquarters",[18]; Rate 31 g/ha,65
same,"Plant response rating, Lambsquarters",[18]; Rate 62 g/ha,70
same,"Plant response rating, Sunflower",[19]; Rate 31 g/ha,10
same,"Plant response rating, Sunflower",[19]; Rate 62 g/ha,30
same,"Plant response rating, Spring Wheat",[20]; Rate 31 g/ha,30
same,"Plant response rating, Spring Wheat",[20]; Rate 62 g/ha,10
same,"Plant response rating, Wild oat",[21]; Rate 31 g/ha,50
same,"Plant response rating, Wild oat",[21]; Rate 62 g/ha,70
same,"Plant response rating, Windgrass",[22]; Rate 31 g/ha,40
same,"Plant response rating, Windgrass",[22]; Rate 62 g/ha,100
